Measured values: the supplement of paper PMC10307832

Assays:
Test in all cases: relative viability (nuclei count vs DMSO), 5 days (fraction); higher = more cells survive
[1] = compound: O=C(Nc1cccc(C(F)(F)F)c1)Nc1cc(S(=O)(=O)NC2CC2)ccc1-c1ccsc1 [AGI-6780] + N=C(N)NC(=N)NCCc1ccccc1 [Phenformin] (partner 250 µM)
In short: (§1)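 Dosing by pin tool came one day after lung cancer cell lines were seeded in 1536-well plates, using either one drug or a fixed anchor-drug dose plus five library-drug doses (not always all listed) in √10 steps. After 5 days, nuclei were counted on 4× images. Relative viability is treated-well nuclei count divided by vehicle-well nuclei count, and values are medians of duplicate plates.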

[2] = compound: O=C(Nc1cccc(C(F)(F)F)c1)Nc1cc(S(=O)(=O)NC2CC2)ccc1-c1ccsc1 [AGI-6780] + COc1cccc2cc(-c3nc([C@H]4CC[C@H](C(=O)O)CC4)n4ncnc(N)c34)[nH]c12 [OSI-027] (partner 0.5 µM)
In short: as §1

[3] = compound: O=C(Nc1cccc(C(F)(F)F)c1)Nc1cc(S(=O)(=O)NC2CC2)ccc1-c1ccsc1 [AGI-6780] + C[C@@H](Oc1cc(-c2cnn(C3CCNCC3)c2)cnc1N)c1c(Cl)ccc(F)c1Cl [Crizotinib] (partner 1 µM)
In short: as §1

[4] = compound: O=C(Nc1cccc(C(F)(F)F)c1)Nc1cc(S(=O)(=O)NC2CC2)ccc1-c1ccsc1 [AGI-6780] + CC(=O)Nc1cccc(-n2c(=O)n(C3CC3)c(=O)c3c(Nc4ccc(I)cc4F)n(C)c(=O)c(C)c32)c1 [Trametinib] (partner 0.02 µM)
In short: as §1

Row | Cell Line | relative viability ([1]; first compound 0.08 µM) | relative viability ([1]; first compound 0.253 µM) | relative viability ([1]; first compound 0.8 µM) | relative viability ([1]; first compound 2.53 µM) | relative viability ([1]; first compound 8 µM) | relative viability ([2]; first compound 0.08 µM) | relative viability ([2]; first compound 0.253 µM) | relative viability ([2]; first compound 0.8 µM) | relative viability ([2]; first compound 2.53 µM) | relative viability ([2]; first compound 8 µM) | relative viability ([3]; first compound 0.08 µM) | relative viability ([3]; first compound 0.253 µM) | relative viability ([3]; first compound 0.8 µM) | relative viability ([3]; first compound 2.53 µM) | relative viability ([3]; first compound 8 µM) | relative viability ([4]; first compound 0.08 µM) | relative viability ([4]; first compound 0.253 µM) | relative viability ([4]; first compound 0.8 µM) | relative viability ([4]; first compound 2.53 µM) | relative viability ([4]; first compound 8 µM)
1 | LU99A | 0.866 | 0.747 | 0.815 | 0.773 | 0.79 | 0.339 | 0.304 | 0.28 | 0.255 | 0.31 | 0.606 | 0.484 | 0.627 | 0.473 | 0.669 | 0.547 | 0.572 | 0.431 | 0.44 | 0.534
2 | LXF-289 | 0.516 | 0.518 | 0.538 | 0.529 | 0.541 | 0.862 | 0.843 | 0.844 | 0.666 | 0.921 | 0.84 | 0.798 | 0.795 | 0.83 | 0.771 | 0.722 | 0.683 | 0.657 | 0.74 | 0.683
3 | NCI-H23 | 0.822 | 0.747 | 0.766 | 0.719 | 0.784 | 0.705 | 0.623 | 0.747 | 0.346 | 0.672 | 0.56 | 0.633 | 0.629 | 0.539 | 0.544 | 0.394 | 0.39 | 0.375 | 0.272 | 0.494
4 | NCI-H522 | 0.706 | 0.659 | 0.633 | 0.616 | 0.627 | 0.782 | 0.724 | 0.804 | 0.564 | 0.751 | – | – | – | – | – | 0.667 | 0.801 | 0.75 | – | 0.645
5 | NCI-H1299 | – | – | – | – | – | – | – | – | – | – | 0.995 | 0.956 | 1.01 | 0.945 | 0.941 | – | – | – | – | –
6 | NCI-H1395 | 0.469 | 0.46 | 0.45 | 0.397 | 0.449 | 0.632 | 0.846 | 0.674 | 0.53 | 0.662 | – | – | – | – | – | 0.984 | 1.01 | 1.04 | 0.975 | 1.06
7 | NCI-H1563 | 0.671 | 0.666 | 0.66 | 0.643 | 0.672 | 0.784 | 0.752 | 0.805 | 0.666 | 0.728 | 0.943 | 0.827 | 0.828 | 0.858 | 0.903 | – | – | – | – | –
8 | NCI-H1648 | – | – | – | – | – | 0.26 | 0.292 | 0.258 | 0.277 | 0.242 | – | – | – | – | – | 0.47 | 0.53 | 0.377 | 0.409 | 0.433
9 | NCI-H1703 | – | – | – | – | – | – | – | – | – | – | 0.906 | 0.612 | 1.11 | 0.665 | 0.824 | – | – | – | – | –
10 | NCI-H1793 | 0.458 | 0.406 | 0.386 | 0.264 | 0.365 | 0.302 | 0.27 | 0.359 | 0.197 | 0.293 | – | – | – | – | – | 0.393 | 0.359 | 0.479 | 0.416 | 0.423
11 | NCI-H2342 | 0.572 | 0.759 | 0.636 | 0.53 | 0.793 | 0.63 | 0.721 | 0.58 | 0.57 | 0.662 | – | – | – | – | – | 0.866 | 0.72 | 0.772 | 0.723 | 0.981
12 | SW 900 | 0.547 | 0.737 | 0.673 | 0.597 | 0.809 | 0.649 | 0.684 | 0.811 | 0.415 | 0.741 | – | – | – | – | – | 1.01 | 0.832 | 0.915 | 0.688 | 1.18
